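48-hour exposure; five concentrations; linearly interpolated endpoints. At the GI50, growth is halved.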 Calls of active or inactive are those of the source. Rule as the data show it: active = GI50 up to about 1.1 µM and inactive = higher.
How the values were obtained:
Assay in all cases: growth of human tumour cells (NCI), 48 h
T47D = tested on: T47D
A549 = tested on: A549
IGROV-1 = tested on: IGROV-1
KM12 = tested on: KM12
SNB-19 = tested on: SNB-19
MDA-MB-435 = tested on: MDA-MB-435
RXF 393 = tested on: RXF 393
OVCAR-5 = tested on: OVCAR-5
CAKI-1 = tested on: CAKI-1
HL-60 = tested on: HL-60
BT-549 = tested on: BT-549
EKVX = tested on: EKVX
RPMI-8226 = tested on: RPMI-8226
NCI/ADR-RES = tested on: NCI/ADR-RES
HOP-62 = tested on: HOP-62
SF-268 = tested on: SF-268
OVCAR-3 = tested on: OVCAR-3
U-251 = tested on: U-251
NCI-H23 = tested on: NCI-H23

Compound | GI50 (T47D) | GI50 (A549) | GI50 (IGROV-1) | GI50 (KM12) | GI50 (SNB-19) | GI50 (MDA-MB-435) | GI50 (RXF 393) | GI50 (OVCAR-5) | GI50 (CAKI-1) | GI50 (HL-60) | GI50 (BT-549) | GI50 (EKVX) | GI50 (RPMI-8226) | GI50 (NCI/ADR-RES) | GI50 (HOP-62) | GI50 (SF-268) | GI50 (OVCAR-3) | GI50 (U-251) | GI50 (NCI-H23)
Cc1ccc(S(=O)(=O)NCc2cccc([N+](=O)[O-])c2)cc1 | > 100 µM (inactive) | > 100 µM (inactive) | > 100 µM (inactive) | > 100 µM (inactive) | > 100 µM (inactive) | > 100 µM (inactive) | > 100 µM (inactive) | > 100 µM (inactive) | > 100 µM (inactive) | 28.8 µM (inactive) | > 100 µM (inactive) | > 100 µM (inactive) | > 100 µM (inactive) | > 100 µM (inactive) | > 100 µM (inactive) | > 100 µM (inactive) | 72.8 µM (inactive) | > 100 µM (inactive) | > 100 µM (inactive)
COC(=O)CN1Cc2cc(C)cc(c2O)CN(CC(=O)OC)Cc2cc(C)cc(c2O)CN(CC(=O)OC)Cc2cc(C)cc(c2O)C1 | > 20.1 µM (inactive) | > 100 µM (inactive) | > 100 µM (inactive) | > 56.2 µM (inactive) | > 100 µM (inactive) | > 100 µM (inactive) | > 33.7 µM (inactive) | 26.4 µM (inactive) | > 100 µM (inactive) | 15.4 µM (inactive) | > 100 µM (inactive) | > 100 µM (inactive) | > 100 µM (inactive) | > 100 µM (inactive) | > 40.3 µM (inactive) | > 100 µM (inactive) | > 58.2 µM (inactive) | > 45.8 µM (inactive) | > 100 µM (inactive)
N=C(N)C(/N=N\c1ccccc1)C(=N)N (stereo unspecified) | 46.3 µM (inactive) | 49.9 µM (inactive) | 33.2 µM (inactive) | 29.4 µM (inactive) | 53.7 µM (inactive) | 16.9 µM (inactive) | > 100 µM (inactive) | 49.7 µM (inactive) | 38.4 µM (inactive) | 24.7 µM (inactive) | 39.9 µM (inactive) | 38.8 µM (inactive) | 27.9 µM (inactive) | 60.4 µM (inactive) | 61.7 µM (inactive) | 59.6 µM (inactive) | 38.5 µM (inactive) | 24 µM (inactive) | 50.4 µM (inactive)
COc1cc2c3c(c1)c1cc(OC)c(OC)cc1c[n+]3CC2 | 5.35 µM (inactive) | > 50 µM (inactive) | 17.5 µM (inactive) | 3.77 µM (inactive) | 2.49 µM (inactive) | 25.8 µM (inactive) | 27.9 µM (inactive) | > 50 µM (inactive) | 30.6 µM (inactive) | > 50 µM (inactive) | 2.63 µM (inactive) | 8.51 µM (inactive) | 18.7 µM (inactive) | > 50 µM (inactive) | 5.73 µM (inactive) | 0.0175 µM (active) | 12.5 µM (inactive) | 2.22 µM (inactive) | 7.29 µM (inactive)
C[C@@H](NC(=O)c1ccc(CNC(=O)/C=C/c2cccc(Oc3ccccc3)c2)cc1)c1ccccc1 | 27.7 µM (inactive) | 14 µM (inactive) | 48.1 µM (inactive) | > 100 µM (inactive) | 16.4 µM (inactive) | > 100 µM (inactive) | 2.51 µM (inactive) | 78.9 µM (inactive) | 14.7 µM (inactive) | > 100 µM (inactive) | > 94 µM (inactive) | 21.8 µM (inactive) | > 100 µM (inactive) | > 100 µM (inactive) | 17.9 µM (inactive) | 20.8 µM (inactive) | 72.1 µM (inactive) | 47.4 µM (inactive) | > 100 µM (inactive)
CC(=O)CC(OC(C)=O)C1=CCC2C(CC1C)OC(=O)C2C (stereo unspecified) | > 100 µM (inactive) | > 100 µM (inactive) | > 100 µM (inactive) | > 100 µM (inactive) | > 100 µM (inactive) | > 100 µM (inactive) | > 100 µM (inactive) | > 100 µM (inactive) | > 100 µM (inactive) | 40.6 µM (inactive) | 75 µM (inactive) | > 100 µM (inactive) | > 100 µM (inactive) | > 100 µM (inactive) | > 100 µM (inactive) | > 100 µM (inactive) | > 100 µM (inactive) | > 100 µM (inactive) | > 100 µM (inactive)
Nc1cccc(Nc2nc3ccccc3nc2NS(=O)(=O)c2ccccc2)c1 | 24.7 µM (inactive) | 33 µM (inactive) | 24.5 µM (inactive) | 18.8 µM (inactive) | 19.5 µM (inactive) | 23.6 µM (inactive) | 18.3 µM (inactive) | 30.3 µM (inactive) | 27 µM (inactive) | 20.7 µM (inactive) | 6.65 µM (inactive) | 43.9 µM (inactive) | 16.7 µM (inactive) | 27.3 µM (inactive) | 26.7 µM (inactive) | 55.2 µM (inactive) | 17.7 µM (inactive) | 17.7 µM (inactive) | 12.9 µM (inactive)
COc1ccc(C(=O)N/N=C2\C(=O)c3c(C)cc(C)cc3CC2(C)C)cc1 | 13.7 µM (inactive) | 19.4 µM (inactive) | 16.1 µM (inactive) | 19.1 µM (inactive) | 27.4 µM (inactive) | 17.9 µM (inactive) | 16.6 µM (inactive) | 21 µM (inactive) | 36 µM (inactive) | 18.3 µM (inactive) | 18.6 µM (inactive) | 22.5 µM (inactive) | 17.1 µM (inactive) | 22 µM (inactive) | 18 µM (inactive) | 17.3 µM (inactive) | 15.6 µM (inactive) | 17.1 µM (inactive) | 29.5 µM (inactive)
O=C1Nc2cccc(Cl)c2/C1=C\c1c(Cl)nc2n1CCS2 | 48.3 µM (inactive) | > 100 µM (inactive) | > 100 µM (inactive) | > 100 µM (inactive) | > 100 µM (inactive) | 35.1 µM (inactive) | 53.2 µM (inactive) | > 100 µM (inactive) | > 100 µM (inactive) | > 100 µM (inactive) | > 100 µM (inactive) | 84.7 µM (inactive) | > 100 µM (inactive) | > 100 µM (inactive) | > 100 µM (inactive) | > 100 µM (inactive) | > 100 µM (inactive) | > 100 µM (inactive) | > 100 µM (inactive)
Cc1ccc(/C=N/Nc2ccc3ccccc3n2)s1 | 8.28 µM (inactive) | 14.3 µM (inactive) | 16.3 µM (inactive) | 32.3 µM (inactive) | 21.3 µM (inactive) | 15.8 µM (inactive) | 37.7 µM (inactive) | 27.3 µM (inactive) | > 100 µM (inactive) | 41.5 µM (inactive) | 18.2 µM (inactive) | 4.73 µM (inactive) | 14.2 µM (inactive) | 35.5 µM (inactive) | 20.8 µM (inactive) | 60.1 µM (inactive) | 5.58 µM (inactive) | 21.1 µM (inactive) | 18.6 µM (inactive)
C[C@@]12CCC3C1C=C1C(=O)c4cc(O)ccc4C(=O)[C@]1(O2)[C@@]3(C)C=O | 3.55 µM (inactive) | 12 µM (inactive) | 5.55 µM (inactive) | 4.79 µM (inactive) | 8.95 µM (inactive) | 3.15 µM (inactive) | 4.3 µM (inactive) | 13.7 µM (inactive) | 4.09 µM (inactive) | 1.42 µM (inactive) | 2.51 µM (inactive) | 9.71 µM (inactive) | 2.2 µM (inactive) | 9.31 µM (inactive) | 8.59 µM (inactive) | 9.91 µM (inactive) | 3.72 µM (inactive) | 9.44 µM (inactive) | 3.93 µM (inactive)
O=C(NCCNCCNC(=O)C(F)(F)F)C(F)(F)F | > 100 µM (inactive) | > 100 µM (inactive) | > 100 µM (inactive) | > 100 µM (inactive) | > 100 µM (inactive) | > 100 µM (inactive) | > 100 µM (inactive) | > 100 µM (inactive) | > 100 µM (inactive) | > 100 µM (inactive) | > 100 µM (inactive) | > 100 µM (inactive) | > 100 µM (inactive) | > 100 µM (inactive) | > 100 µM (inactive) | > 100 µM (inactive) | > 100 µM (inactive) | > 100 µM (inactive) | > 100 µM (inactive)
CC1=CC(C)(C)[C@H]2O[C@@]3(O)C[C@]4(C)[C@H]5C[C@@](C(C)C)(O[C@H]4c4ccoc4)O[C@H]4[C@]5(C3)O[C@@]1(O)[C@]24O | > 100 µM (inactive) | 75.9 µM (inactive) | > 100 µM (inactive) | > 100 µM (inactive) | 45.4 µM (inactive) | > 100 µM (inactive) | > 100 µM (inactive) | > 100 µM (inactive) | > 100 µM (inactive) | > 100 µM (inactive) | > 100 µM (inactive) | > 100 µM (inactive) | > 100 µM (inactive) | > 100 µM (inactive) | 23.5 µM (inactive) | > 100 µM (inactive) | > 100 µM (inactive) | 74 µM (inactive) | > 100 µM (inactive)
O=[Se](O)O | > 40 µM (inactive) | 1.15 µM (inactive) | 0.826 µM (active) | 1.63 µM (inactive) | 1.03 µM (active) | 3.77 µM (inactive) | 3.76 µM (inactive) | 1.95 µM (inactive) | 34.2 µM (inactive) | 10.4 µM (inactive) | 4.9 µM (inactive) | 2.11 µM (inactive) | 3.29 µM (inactive) | 4.57 µM (inactive) | 0.577 µM (active) | 1.18 µM (inactive) | 4.16 µM (inactive) | 0.815 µM (active) | 3.72 µM (inactive)
